Experimental data: article PMC11617653, “Macrocyclic Inhibitors Targeting the Prime Site of the Fibrinolytic Serine Protease Plasmin” (Chemmedchem, 2024)
“And” between values parts separate entries of the source, which are not always exact repeats. Equal values may be shown once. Positions of bridges follow the written chain, without caps; N, C: chain ends. Non-standard residues stand in square brackets, D forms with d. Residues, ends and D or L forms follow the SMILES beside them. Phe(4-NH2) = Nc1ccc(C[C@H](N)C(=O)O)cc1; Trx = NC[C@H]1CC[C@H](C(=O)O)CC1; βAla = NCCC(=O)O

Target: T1, human plasmin (Homo sapiens, UniProt P00747)
T1 construct: purchased Calbiochem
T1 sequence (P00747 581-810): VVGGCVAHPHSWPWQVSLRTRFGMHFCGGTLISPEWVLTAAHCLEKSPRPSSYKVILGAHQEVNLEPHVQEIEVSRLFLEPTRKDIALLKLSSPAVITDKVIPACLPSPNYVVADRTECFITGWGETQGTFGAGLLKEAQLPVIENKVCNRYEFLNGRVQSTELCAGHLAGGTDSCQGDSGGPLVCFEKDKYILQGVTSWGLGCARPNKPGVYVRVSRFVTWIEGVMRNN
T1 sequence (P00747 97-580): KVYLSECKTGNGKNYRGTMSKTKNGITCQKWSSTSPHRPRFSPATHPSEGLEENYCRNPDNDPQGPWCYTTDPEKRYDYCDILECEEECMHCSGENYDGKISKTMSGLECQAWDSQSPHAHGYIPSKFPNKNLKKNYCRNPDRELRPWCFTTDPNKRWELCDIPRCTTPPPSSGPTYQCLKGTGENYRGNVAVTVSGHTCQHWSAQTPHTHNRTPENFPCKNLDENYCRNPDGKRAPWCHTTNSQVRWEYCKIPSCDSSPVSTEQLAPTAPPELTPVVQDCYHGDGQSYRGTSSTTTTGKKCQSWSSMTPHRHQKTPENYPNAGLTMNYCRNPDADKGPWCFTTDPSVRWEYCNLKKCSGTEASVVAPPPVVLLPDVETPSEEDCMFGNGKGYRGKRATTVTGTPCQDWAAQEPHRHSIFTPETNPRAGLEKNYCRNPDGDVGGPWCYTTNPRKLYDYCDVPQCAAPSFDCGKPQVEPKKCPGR
Assay: Inhibition of human plasmin, fluorogenic substrate Mes-DArg-Phe-Arg-AMC
Format: biochemical
Settings: for Ki: inhibition of plasmin, steady-state velocities, equation 1; for fold weaker plasmin inhibition than inhibitor 28: compared with cyclic inhibitor 28
Experimental: All inhibitors prepared in this study act as reversible competitive plasmin inhibitors, their K i values were calculated by fitting the steady‐state velocities as function of the inhibitor concentrations using equation 1. 4‐aminophenylalanine (Phe(4‐NH2)) was incorporated as P1’ residue in the first inhibitor series, which enabled a macrocyclization via amide bond formation from its side chain amino group using various linker segments and P2’ residues (Table 1). […] The improved potency of SFTI‐1 analogues with basic P2’ residues[9] stimulated the incorporation of Arg in that position leading to inhibitor 4 with a slightly stronger inhibitory potency. A significant improvement could be achieved when using 3‐ or 4‐aminophenylacetic acid as P2’ group in combination with elongated linker residues (5‐6). […] However, inhibitor 9 is a twofold stronger plasmin inhibitor compared to its analogue 8.
For these inhibitors the steady‐state velocities were calculated by fitting the progress curves to equation 2 providing an additional apparent first‐order rate constant k obs for each curve. The steady‐state rates were used for K i determination with equation 1 and the k obs values for the calculation of the association rate constants k on according to equation 3. The dissociation rate constant k off was calculated from the known K i and k on values using equation 4. The enzyme kinetic evaluation of slow‐binding inhibitors of plasmin has already been described in detail in our two previous publications.[11, 12]
All measurements were conducted as triplicates in black 96‐well FluoroNunc MaxiSorp plates (Nunc, Langenselbold, Germany) and suitable fluorogenic substrates at room temperature. […] Each well contained a total volume of 180 μL consisting of 100 μL of inhibitor dissolved in buffer, 40 μL of the substrate Mes‐DArg‐Phe‐Arg‐AMC[11] (100 μM in assay, KM=16.1 μM) dissolved in water and 40 μL of plasmin solution (0.27 nM in assay). The following equations were used for the enzyme kinetic analysis as described in the results section and in our previous publications.[11, 12] (1) [drawing 71] (2) [drawing 72] (3) [drawing 73] (4) [drawing 74]

[1] = K i (μM), series one, 4-aminophenylalanine in P1'
[2] = K i (nM), series two, substituted Bpa in P1', and acyclic analogues

Ki [1]	Ki [2]	SMILES	other results
1.38 ± 0.15 µM	–	NC[C@H]1CC[C@H](C(=O)N[C@H]2Cc3ccc(cc3)NC(=O)CCCCCNC(=O)Cc3ccc(cc3)NC2=O)CC1 [inhibitor 6]	–
2.45 ± 0.02 µM	–	NC[C@H]1CC[C@H](C(=O)N[C@H]2Cc3ccc(cc3)NC(=O)CCCCNC(=O)Cc3ccc(cc3)NC2=O)CC1 [inhibitor 7]	–
5.53 ± 0.42 µM	–	NC[C@H]1CC[C@H](C(=O)N[C@H]2Cc3ccc(cc3)NC(=O)CCNC(=O)CNC(=O)Cc3ccc(cc3)NC2=O)CC1 [inhibitor 8]	–
2.82 ± 0.2 µM	–	NC[C@H]1CC[C@H](C(=O)N[C@H]2Cc3ccc(cc3)NC(=O)CNC(=O)CCNC(=O)Cc3ccc(cc3)NC2=O)CC1 [inhibitor 9]	–
3.33 ± 0.41 µM	–	CC(C)C[C@@H]1NC(=O)CCNC(=O)Cc2ccc(cc2)NC(=O)[C@@H](NC(=O)[C@H]2CC[C@H](CN)CC2)Cc2ccc(cc2)NC1=O [inhibitor 10]	–
3.85 ± 0.28 µM	–	CC(C)C[C@H]1NC(=O)CCNC(=O)Cc2ccc(cc2)NC(=O)[C@@H](NC(=O)[C@H]2CC[C@H](CN)CC2)Cc2ccc(cc2)NC1=O [inhibitor 11]	–
–	0.0338 ± 0.0014 µM	Cc1ccc2cc1NC(=O)CNC(=O)CCNC(=O)Cc1ccc(cc1)NC(=O)[C@@H](NC(=O)[C@H]1CC[C@H](CN)CC1)Cc1ccc-2cc1 [inhibitor 25]	fold weaker plasmin inhibition than inhibitor 28: at least 20 fold

Continued, compound first:

SMILES	Ki [1]	Ki [2]	other results
NC[C@H]1CC[C@H](C(=O)N[C@H]2Cc3ccc(cc3)NC(=O)CCNC(=O)CNC2=O)CC1 [inhibitor 3] (H-[Trx][Phe(4-NH2)]G[βAla]; lactam 2-C)	150 ± 31 µM	–	–
N=C(N)NCCC[C@@H]1NC(=O)[C@@H](NC(=O)[C@H]2CC[C@H](CN)CC2)Cc2ccc(cc2)NC(=O)CCNC1=O [inhibitor 4] (H-[Trx][Phe(4-NH2)]R[βAla]; lactam 2-C)	110 ± 56 µM	–	–
NC[C@H]1CC[C@H](C(=O)N[C@H]2Cc3ccc(cc3)NC(=O)CCCCCNC(=O)Cc3cccc(c3)NC2=O)CC1 [inhibitor 5]	5.81 ± 1.09 µM	–	–
NC[C@H]1CC[C@H](C(=O)N[C@H]2Cc3ccc(cc3)NC(=O)[C@H](Cc3ccccc3)NC(=O)CCNC(=O)Cc3ccc(cc3)NC2=O)CC1 [inhibitor 12, (1r,4S)‐4‐(aminomethyl)‐N‐((4S,9S)‐9‐benzyl‐3,8,11,15‐tetraoxo‐2,7,10,14‐tetraaza‐1,6(1,4)‐dibenzenacyclohexadecaphane‐4‐yl)cyclohexane‐1‐carboxamide]	0.71 µM and 0.714 µM	–	–
Cc1ccc2cc1NC(=O)CCCCCNC(=O)Cc1ccc(cc1)NC(=O)[C@@H](NC(=O)[C@H]1CC[C@H](CN)CC1)Cc1ccc-2cc1 [inhibitor 22]	–	0.042 µM and 0.0421 µM	–
Cc1ccc2cc1NC(=O)C1CCC(CC1)CNC(=O)Cc1ccc(cc1)NC(=O)C(NC(=O)C1CCC(CN)CC1)Cc1ccc-2cc1 (stereo not shown) [inhibitor 23]	–	0.109 ± 0.004 µM	–
Cc1ccc2cc1NC(=O)Cc1ccc(cc1)NC(=O)Cc1ccc(cc1)NC(=O)[C@@H](NC(=O)[C@H]1CC[C@H](CN)CC1)Cc1ccc-2cc1 [inhibitor 24]	–	0.0105 ± 0.0014 µM	fold enhanced plasmin potency compared with compound 22: 4 fold
Cc1ccc2cc1NC(=O)CCNC(=O)CNC(=O)Cc1ccc(cc1)NC(=O)[C@@H](NC(=O)[C@H]1CC[C@H](CN)CC1)Cc1ccc-2cc1 [inhibitor 26]	–	0.0331 ± 0.0032 µM	–
Cc1ccc2cc1NC(=O)CCCNC(=O)CNC(=O)Cc1ccc(cc1)NC(=O)[C@@H](NC(=O)[C@H]1CC[C@H](CN)CC1)Cc1ccc-2cc1 [inhibitor 27]	–	0.017 ± 0.0006 µM	fold weaker plasmin inhibition than inhibitor 28: at least 20 fold
